Assay [1] relates to HCC827GR cells. The assay can be described thus: Marker protein expression in Iressa-resistant HCC827GR lung cancer cells. It is filed as cell-based, human. An excerpt: The HCC827GR cell line is a lung cancer cell line that is resistant to Iressa.
The subject of assay [2] is triple negative breast cancer cells. The assay can be described thus: Tumor marker expression in animal model of triple negative breast cancer, supplement with or without chemotherapeutic drugs. It is filed as in vivo, mice. The settings on record: primary tumor; supplement at low, mid, high dose with Taxol or Adriamycin; drugs alone.
Assay [3] has the same test system. The description is as above. It is filed as in vivo, mice. As to the method: […] Animals were also treated with taxol, taxol and the supplement in combination, adriamycin, adriamycin and the supplement in combination, avastin, and avastin and the supplement in combination.
FIG. 9A depicts a typical study design for animal model studies of this phenomena. Three different supplement formulations were used that provided low (NFS), mid (NFM-containing 1.5 times the Se content of NFS), and high (NFH, containing twice the Se content of NFS) doses of selenium and fish oil. These supplement formulations were provided in combination with a chemotherapeutic drug (such as Taxol or Adriamycin).
As noted above, nutritional supplements can be provided that include different amounts of selenium (Se), and can also be provided with or used in combination with a chemotherapeutic agent.
CD24 and CD29 are markers that are commonly used to determine degree of stem cell character. […] Mice were also treated with taxol, taxol and the supplement in combination, adriamycin, adriamycin and the supplement in combination, avastin, and avastin and the nutritional supplement in combination. […] As in FIG. 9, nutritional supplements containing low, mid, and high amounts of selenium were provided in combination with either avastin or taxol.

In assay [4] the test system is A549 human lung cancer sphere cells. The assay can be described thus: Marker protein expression in stem-cell like A549 sphere cells. In kind it is cell-based.
Text: FIG. 7B depicts an exemplary Western blot of PD-L1 expression in stem-cell like sphere cells derived from A549 human lung cancer cells.
Setting [5] is: metastatic brain tumor site, different amounts of supplement in combination with Taxol, taxol alone.
[6] abbreviates: tumor, supplement at low, mid, high doses in combination with taxol or avastin, drug alone.

As to `COc1cc2ncnc(Nc3ccc(F)c(Cl)c3)c2cc1OCCCN1CCOCC1` [Iressa], the Axl expression result in assay [1] (24 hours of treatment, in either the absence or presence of Iressa) is recorded as “not reduced”; in assay [1] (72 hours) it was “no apparent effect”. The HSP90 expression result in assay [1] (72 hours) is recorded as “no apparent effect”. Further, in assay [1] (chemotherapy resistant cancer cells), the PD-L1 expression result was “has no effect”.

Turning to `COc1cccc2c1C(=O)c1c(O)c3c(c(O)c1C2=O)C[C@@](O)(C(=O)CO)C[C@@H]3O[C@H]1C[C@H](N)[C@H](O)[C@H](C)O1` [adriamycin], in assay [2], the PD-1 expression result is recorded as “increased slightly” and the PD-L1 expression result is reported as “no apparent effect”.

For the compound `CC(=O)O[C@H]1C(=O)[C@@]2(C)[C@H]([C@H](OC(=O)c3ccccc3)[C@]3(O)C[C@H](OC(=O)[C@H](O)[C@@H](NC(=O)c4ccccc4)c4ccccc4)C(C)=C1C3(C)C)[C@]1(OC(C)=O)CO[C@@H]1C[C@@H]2O` [taxol], in assay [3] (setting [5]), the CD24 expression result was “no apparent effect”, the CD29 expression result is given as “no apparent effect”, the MMP-9 expression result is “no apparent effect” and the VEGF expression entry was “no apparent effect”. Further, the EGFR expression result in assay [3] (tumor tissue, supplement with different amounts of selenium co-treated with taxol or avastin, drug alone) is on record as “not impacted”. Besides, in assay [3] (setting [6]), the PTEN expression entry was “increase induced by taxol”, the p-PTEN expression result is listed as “decrease induced by either taxol or avastin” and the p-STAT3 expression entry is given as “decrease induced by either taxol or avastin”. Also, in assay [2], the PD-1 expression result is “increased slightly” and the PD-L1 expression entry was “no apparent effect”.

As to “avastin: chemotherapeutic agent used in the animal tumor model”, the CXCR4 expression result in assay [3] (tumor tissue, avastin alone or cotherapy with supplement at low, mid, high doses) is reported as “little effect”. In assay [3] (setting [6]), the p-PTEN expression result is reported as “decrease induced by either taxol or avastin” and the p-STAT3 expression entry is on record as “decrease induced by either taxol or avastin”.

On to selenium, for which, in assay [4], the p-HSP27 expression result is on record as “not found” and the vimentin expression result is given as “not seen”.
